Square brackets hold non-standard residues; d marks the D form. Peptide text beside a SMILES is read from it. * marks the point of attachment. Diglycolyl(TOTA) = NCCCOCCOCCOCCCNC(=O)COCC(=O)*; Chg = N[C@H](C(=O)O)C1CCCCC1; X1 = COCCOCCOCCOCCC(=O)*; Ahx = NCCCCCC(=O)O
Molecular target: T1, myostatin (Homo sapiens, UniProt O14793)
T1 sequence (O14793 267-375): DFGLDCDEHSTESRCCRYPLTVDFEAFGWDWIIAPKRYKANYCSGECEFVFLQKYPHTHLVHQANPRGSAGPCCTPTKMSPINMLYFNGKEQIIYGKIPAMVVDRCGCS
Assay: cell-based
Settings: HEK293, read-out: luciferase activity (relative; myostatin without test sample = 100%)
Experimental: Human embryo kidney cell HEK293 cells were cultured in a 5% (v/v) CO2 incubator set to 37° C. using DMEM (NACALAI TESQUE, INC.) including a 10% (v/v) fetal bovine serum (FBS) added with a 1% (v/v) non-essential amino acid (Wako Pure Chemical Corporation).
(2) In Vitro Reporter Assay
HEK293 cells were seeded on a D-Lys-corted 96-well transparent plate (Thermo Fisher Scientific Inc.) in an amount of 2.0×10^4 cells (100 μL DMEM+10% (v/v) FBS) per well and were cultured for 24 hours.
The cells were cultured at 37° C. for 24 hours, and after the cell culture solution was replaced with serum-free DMEM, the cells were cultured for 8 hours. Incidentally, pGL4.48 [luc2P/SBE/Hygro] includes firefly luciferase reporter gene luc2P under Smad binding region (SBE) control, and when a signaling pathway by the myostatin is activated, intracellular Smad forms a complex, and the complex is bonded to SBE to promote transcription of luc2P.
The peptide as a test sample was suspended as a stock solution using DMSO to become 10 mM and stored at −30° C. Before 1 hour from addition to the culture medium, the peptide and a myostatin (Merck Millipore Corp.) were suspended with serum-free DMEM and left to stand still at room temperature (25° C.) for 20 minutes. Subsequently, a peptide with an arbitrary final concentration (0.3 to […]) and 8 ng/mL of myostatin were added to the culture medium, and then culturing was performed for 4 hours. After culturing for 4 hours, the culture solution was removed by an aspirator and the cells were washed with 1×PBS. Thereafter, Passive Lysis buffer (Promega Corporation) was added in an amount of 50 μL per well to dissolve the cells. The dissolving solution was subjected to centrifugal separation at 4500 rpm for 6 minutes under the condition of 4° C. After 20 μL of supernatant subjected to centrifugal separation was transferred to a white 96-well plate (Costar), 50 μL of Luciferase Assay Reagent (Promega Corporation) was then added, emission was detected by Luminoskan Ascent (Thermo Fisher Scientific Inc.), and a firefly luciferase activity was measured. Further, after 50 μL of Stop & Glo Buffer (Promega Corporation) was added, emission was detected by Luminoskan Ascent, and a Renilla luciferase activity was measured to be regarded as an internal control.

Row | SMILES | remaining activity at 0.3 µM
1 | CC[C@H](C)[C@H](NC(=O)[C@H](CCC(N)=O)NC(=O)[C@@H](NC(=O)[C@H](CCCCN)NC(=O)[C@@H](NC(=O)[C@H](Cc1c[nH]c2ccccc12)NC(=O)[C@H](CCC(=O)O)NC(=O)[C@@H](NC(=O)[C@H](Cc1ccc(O)cc1)NC(=O)[C@@H](N)Cc1c[nH]c2ccccc12)[C@@H](C)CC)[C@@H](C)CC)[C@@H](C)CC)C(=O)N[C@@H](Cc1c[nH]c2ccccc12)C(=O)N[C@@H](CO)C(=O)N[C@@H](CCCCN)C(=O)N[C@@H](CC(C)C)C(=O)N[C@@H](CCCNC(=N)N)C(=O)N[C@@H](CC(C)C)C(N)=O [nPDM-55, WYIEWIKIQIWSKLRL-NH2] (H-WYIEWIKIQIWSKLRL-NH2) | ≤ 60%
2 | CC[C@H](C)[C@H](NC(=O)[C@H](CCC(N)=O)NC(=O)[C@@H](NC(=O)[C@H](CCCCN)NC(=O)[C@@H](NC(=O)[C@H](Cc1c[nH]c2ccccc12)NC(=O)[C@H](CCCCN)NC(=O)[C@@H](NC(=O)[C@H](Cc1ccc(O)cc1)NC(=O)[C@@H](N)Cc1c[nH]c2ccccc12)[C@@H](C)CC)[C@@H](C)CC)[C@@H](C)CC)C(=O)N[C@@H](Cc1c[nH]c2ccccc12)C(=O)N[C@@H](CO)C(=O)N[C@@H](CCCCN)C(=O)N[C@@H](CC(C)C)C(=O)N[C@@H](CCCNC(=N)N)C(=O)N[C@@H](CC(C)C)C(N)=O [nPDM-55/E31K, WYIKWIKIQIWSKLRL-NH2] (H-WYIKWIKIQIWSKLRL-NH2) | ≤ 60%
3 | CC[C@H](C)[C@H](NC(=O)[C@H](CCC(N)=O)NC(=O)[C@@H](NC(=O)[C@H](CCCCN)NC(=O)[C@@H](NC(=O)[C@H](Cc1c[nH]c2ccccc12)NC(=O)[C@H](CCC(N)=O)NC(=O)[C@@H](NC(=O)[C@H](Cc1ccc(O)cc1)NC(=O)[C@@H](N)Cc1c[nH]c2ccccc12)[C@@H](C)CC)[C@@H](C)CC)[C@@H](C)CC)C(=O)N[C@@H](Cc1c[nH]c2ccccc12)C(=O)N[C@@H](CO)C(=O)N[C@@H](CCCCN)C(=O)N[C@@H](CC(C)C)C(=O)N[C@@H](CCCNC(=N)N)C(=O)N[C@@H](CC(C)C)C(N)=O [nPDM-55/E31Q, WYIQWIKIQIWSKLRL-NH2] (H-WYIQWIKIQIWSKLRL-NH2) | ≤ 60%
4 | CC[C@H](C)[C@H](NC(=O)[C@H](CCC(N)=O)NC(=O)[C@@H](NC(=O)[C@H](CCCCN)NC(=O)[C@@H](NC(=O)[C@H](Cc1c[nH]c2ccccc12)NC(=O)[C@H](CCCNC(=N)N)NC(=O)[C@@H](NC(=O)[C@H](Cc1ccc(O)cc1)NC(=O)[C@@H](N)Cc1c[nH]c2ccccc12)[C@@H](C)CC)[C@@H](C)CC)C1CCCCC1)C(=O)N[C@@H](Cc1c[nH]c2ccccc12)C(=O)N[C@@H](CO)C(=O)N[C@@H](CCCCN)C(=O)N[C@@H](CC(C)C)C(=O)N[C@@H](CCCNC(=N)N)C(=O)N[C@@H](CC(C)C)C(N)=O [nPDM-64, WYIRWIK-Chg-QIWSKLRL-NH2] (H-WYIRWIK[Chg]QIWSKLRL-NH2) | ≤ 60%

Further lines, results first:

Row | remaining activity at 0.3 µM | SMILES
5 | ≤ 60% | CC[C@H](C)[C@H](NC(=O)[C@H](Cc1ccc(O)cc1)NC(=O)[C@H](Cc1c[nH]c2ccccc12)NC(=O)CCCCCNC(=O)CCOCCOCCOCCOC)C(=O)N[C@@H](CCC(=O)O)C(=O)N[C@@H](Cc1c[nH]c2ccccc12)C(=O)N[C@H](C(=O)N[C@@H](CCCCN)C(=O)N[C@H](C(=O)N[C@@H](CCC(N)=O)C(=O)N[C@H](C(=O)N[C@@H](Cc1c[nH]c2ccccc12)C(=O)N[C@@H](CO)C(=O)N[C@@H](CCCCN)C(=O)N[C@@H](CC(C)C)C(=O)N[C@@H](CCCNC(=N)N)C(=O)N[C@@H](CC(C)C)C(N)=O)[C@@H](C)CC)[C@@H](C)CC)[C@@H](C)CC [PDM-55, R^111-WYIEWIKIQIWSKLRL-NH2] ({X1-Ahx}-WYIEWIKIQIWSKLRL-NH2)
6 | ≤ 60% | CC[C@H](C)[C@H](NC(=O)[C@H](Cc1ccc(O)cc1)NC(=O)[C@H](Cc1c[nH]c2ccccc12)NC(=O)CCCCCNC(=O)CCOCCOCCOCCOC)C(=O)N[C@@H](CCC(=O)O)C(=O)N[C@@H](CO)C(=O)N[C@H](C(=O)N[C@@H](CCCCN)C(=O)N[C@H](C(=O)N[C@@H](CCC(N)=O)C(=O)N[C@H](C(=O)N[C@@H](Cc1c[nH]c2ccccc12)C(=O)N[C@@H](CO)C(=O)N[C@@H](CCCCN)C(=O)N[C@@H](CC(C)C)C(=O)N[C@@H](CCCNC(=N)N)C(=O)N[C@@H](CC(C)C)C(N)=O)[C@@H](C)CC)[C@@H](C)CC)[C@@H](C)CC [PDM-63, R^111-WYIESIKIQIWSKLRL-NH2] ({X1-Ahx}-WYIESIKIQIWSKLRL-NH2)
7 | ≤ 60% | CC[C@H](C)[C@H](NC(=O)[C@H](CCC(N)=O)NC(=O)[C@@H](NC(=O)[C@H](CCCNC(=N)N)NC(=O)[C@@H](NC(=O)[C@@H](Cc1c[nH]c2ccccc12)NC(=O)[C@H](CCCNC(=N)N)NC(=O)[C@@H](NC(=O)[C@H](Cc1ccc(O)cc1)NC(=O)[C@H](Cc1c[nH]c2ccccc12)NC(=O)CCCCCNC(=O)CCOCCOCCOCCOC)[C@@H](C)CC)[C@@H](C)CC)C1CCCCC1)C(=O)N[C@@H](Cc1c[nH]c2ccccc12)C(=O)N[C@@H](CO)C(=O)N[C@@H](CCCNC(=N)N)C(=O)N[C@H](C(=O)N1CCC[C@H]1C(=O)N[C@@H](CC(C)C)C(N)=O)C1CCCCC1 [PDM-80, R^111-WYIRwIR-Chg-QIWSR-Chg-PL-NH2] ({X1-Ahx}-WYIR[dW]IR[Chg]QIWSR[Chg]PL-NH2)
8 | ≤ 60% | CC[C@H](C)[C@H](NC(=O)[C@H](CCC(N)=O)NC(=O)[C@@H](NC(=O)[C@H](CCCCN)NC(=O)[C@@H](NC(=O)[C@@H](Cc1c[nH]c2ccccc12)NC(=O)[C@H](CCCNC(=N)N)NC(=O)[C@@H](NC(=O)[C@H](Cc1ccc(O)cc1)NC(=O)[C@H](Cc1c[nH]c2ccccc12)NC(=O)CCCCCNC(=O)CCOCCOCCOCCOC)[C@@H](C)CC)[C@@H](C)CC)C1CCCCC1)C(=O)N[C@@H](Cc1c[nH]c2ccccc12)C(=O)N[C@@H](CO)C(=O)N[C@@H](CCCCN)C(=O)N[C@H](C(=O)N[C@@H](CCCNC(=N)N)C(=O)N[C@@H](CC(C)C)C(N)=O)C1CCCCC1 [PDM-86, R^111-WYIRwIK-Chg-QIWSK-Chg-RL-NH2] ({X1-Ahx}-WYIR[dW]IK[Chg]QIWSK[Chg]RL-NH2)
9 | ≤ 60% | CC[C@H](C)[C@H](NC(=O)[C@H](CCC(N)=O)NC(=O)[C@@H](NC(=O)[C@H](CCCCN)NC(=O)[C@@H](NC(=O)[C@@H](Cc1c[nH]c2ccccc12)NC(=O)[C@H](CCCNC(=N)N)NC(=O)[C@@H](NC(=O)[C@H](Cc1ccc(O)cc1)NC(=O)[C@H](Cc1c[nH]c2ccccc12)NC(=O)CCCCCNC(=O)COCC(=O)NCCCOCCOCCOCCCN)[C@@H](C)CC)[C@@H](C)CC)C1CCCCC1)C(=O)N[C@@H](Cc1c[nH]c2ccccc12)C(=O)N[C@@H](CO)C(=O)N[C@@H](CCCCN)C(=O)N[C@H](C(=O)N[C@@H](CCCNC(=N)N)C(=O)N[C@@H](CC(C)C)C(N)=O)C1CCCCC1 [PDM-89, R^115-WYIRwIK-Chg-QIWSK-Chg-RL-NH2] ({Diglycolyl(TOTA)-Ahx}-WYIR[dW]IK[Chg]QIWSK[Chg]RL-NH2)
10 | ≤ 60% | CC[C@H](C)[C@H](NC(=O)[C@H](CCC(N)=O)NC(=O)[C@@H](NC(=O)[C@H](CCCCN)NC(=O)[C@@H](NC(=O)[C@@H](Cc1c[nH]c2ccccc12)NC(=O)[C@H](CCCNC(=N)N)NC(=O)[C@@H](NC(=O)[C@H](Cc1ccc(O)cc1)NC(=O)[C@H](Cc1c[nH]c2ccccc12)NC(=O)CNC(=O)COCC(=O)NCCCOCCOCCOCCCN)[C@@H](C)CC)[C@@H](C)CC)C1CCCCC1)C(=O)N[C@@H](Cc1c[nH]c2ccccc12)C(=O)N[C@@H](CO)C(=O)N[C@@H](CCCCN)C(=O)N[C@H](C(=O)N[C@@H](CCCNC(=N)N)C(=O)N[C@@H](CC(C)C)C(N)=O)C1CCCCC1 [PDM-90, R^116-WYIRwIK-Chg-QIWSK-Chg-RL-NH2] ({Diglycolyl(TOTA)}-GWYIR[dW]IK[Chg]QIWSK[Chg]RL-NH2)
11 | ≤ 60% | CC[C@H](C)[C@H](NC(=O)[C@H](CCC(N)=O)NC(=O)[C@@H](NC(=O)[C@H](CCCCN)NC(=O)[C@@H](NC(=O)[C@@H](Cc1c[nH]c2ccccc12)NC(=O)[C@H](CCCNC(=N)N)NC(=O)[C@@H](NC(=O)[C@H](Cc1ccc(O)cc1)NC(=O)[C@H](Cc1c[nH]c2ccccc12)NC(=O)CNC(=O)CNC(=O)COCC(=O)NCCCOCCOCCOCCCN)[C@@H](C)CC)[C@@H](C)CC)C1CCCCC1)C(=O)N[C@@H](Cc1c[nH]c2ccccc12)C(=O)N[C@@H](CO)C(=O)N[C@@H](CCCCN)C(=O)N[C@H](C(=O)N[C@@H](CCCNC(=N)N)C(=O)N[C@@H](CC(C)C)C(N)=O)C1CCCCC1 [PDM-91, R^117-WYIRwIK-Chg-QIWSK-Chg-RL-NH2] ({Diglycolyl(TOTA)}-GGWYIR[dW]IK[Chg]QIWSK[Chg]RL-NH2)

Reference: patent US11566047B2, “Peptide or pharmaceutically acceptable salt thereof, or prodrug thereof” (TOKYO UNIVERSITY OF PHARMACY & LIFE SCIENCES, priority 2016, dated 2023)
